Laboratory results published in patent publication US12050224B2, “Compounds useful as near-infrared fluorescent probes selectively binding to tau aggregates and method of preparing the same” (KOREA INSTITUTE OF SCIENCE AND TECHNOLOGY, priority 2020, dated 2024).

Legend:
[1] = target: bovine serum albumin (BSA) (Bos taurus, UniProt P02769); assay: Measurement of non-specific binding using BSA; settings: for FIBSA: fold increase = fluorescence intensity of probe bound to BSA / probe (free): compound 10 μM, 0.25 mg/ml BSA, 30 min incubation
Sequence of bovine serum albumin (BSA) (P02769 25-607): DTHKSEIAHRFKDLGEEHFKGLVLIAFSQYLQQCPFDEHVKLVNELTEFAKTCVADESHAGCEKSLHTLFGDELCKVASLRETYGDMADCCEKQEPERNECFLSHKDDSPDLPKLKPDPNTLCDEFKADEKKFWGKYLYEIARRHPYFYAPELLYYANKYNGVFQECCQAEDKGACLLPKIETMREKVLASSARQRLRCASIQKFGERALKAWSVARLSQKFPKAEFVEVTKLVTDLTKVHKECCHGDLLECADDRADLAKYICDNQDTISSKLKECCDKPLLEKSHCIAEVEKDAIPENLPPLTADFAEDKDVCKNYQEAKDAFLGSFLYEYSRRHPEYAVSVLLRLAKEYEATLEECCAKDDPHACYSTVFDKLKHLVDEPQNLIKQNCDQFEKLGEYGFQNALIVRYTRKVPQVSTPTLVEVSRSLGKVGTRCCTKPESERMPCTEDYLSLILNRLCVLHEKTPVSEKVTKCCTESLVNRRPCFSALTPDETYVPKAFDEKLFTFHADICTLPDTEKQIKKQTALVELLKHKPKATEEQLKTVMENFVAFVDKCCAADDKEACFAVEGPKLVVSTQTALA
Description: In order to exclude non-specific binding of the compound to serum, reactivity between the compound and bovine serum albumin (BSA) was further tested. 25 μl of a 10 μM compound was incubated along with 25 μl of 0.25 mg/ml BSA for 30 minutes, and then the fluorescence spectrum reaction was measured using a spectrophotometer. The BSA response was conducted to identify non-selective binding to other proteins in the blood when applied to patients as an imaging agent.

[2] = target: T1, tau aggregates (Tau-K18 protein) (Homo sapiens, UniProt P10636); assay: In vitro binding assay (fluorescence labeling ability) to tau aggregates; settings: for SIaβ: selectivity index = fluorescence intensity of probe bound to Tau aggregate / bound to Aβ aggregate / SItaumono: selectivity index, tau aggregate versus tau monomer / FItau: fold increase = fluorescence intensity of probe bound to tau aggregate / probe (free): compound 10 μM; for FItau: fold increase = fluorescence intensity of probe bound to tau aggregate / probe (free): PBS, 30 min incubation; for selectivity for tau aggregates over amyloid aggregates: in vitro screening as fluorescent probes
T1 construct: aggregation of Tau-K18 protein (0.5 mg/ml in PBS) purified and isolated from E. coli; made in house; host or cells: E. coli
T1 sequence (P10636 561-685 limits assumed): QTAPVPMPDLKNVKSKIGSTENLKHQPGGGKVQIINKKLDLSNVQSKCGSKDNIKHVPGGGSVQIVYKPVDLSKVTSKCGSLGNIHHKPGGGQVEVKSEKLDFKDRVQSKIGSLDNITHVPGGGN
Description: (§1) Experimental Example 2-1: Tau and amyloid beta aggregation induction For amyloid aggregation induction, the synthesized Abeta40 (Amyloid Beta 40) peptide was dissolved in PBS at a concentration of 0.5 mg/ml to induce aggregation for 7 days at 37° C. and 200 rpm with shaking. To induce aggregation of tau proteins, aggregation of Tau-K18 protein (0.5 mg/ml in PBS) purified and isolated from E. coli with heparin (0.1 mg/ml) and DTT (100 μM) was induced at 37° C. and 200 rpm for 7 days under shaking conditions. […] At this time, thioflavin S (Th S), which is known to bind to beta-sheet structures such as tau and amyloid aggregates, was used as a control group (Ex: 430 nm, Em: 480-610 nm). Specifically, in order to determine the labeling ability of newly synthesized compounds to tau aggregate proteins, a 25 μl dilution of a 10 μM labeling substance in PBS and 25 id of a 0.125 mg/ml tau or amyloid pre-aggregate or aggregate diluted in PBS were each incubated for 30 minutes, and then a fluorescence spectrum reaction was measured using a spectrophotometer. Selectivity analysis for tau aggregates and amyloid beta aggregates of the novel synthetic compounds of the present invention was performed as described above, and the resulting in vitro fluorescence changes are summarized in Table 2 and FIG. 1 below.

[3] = target: T2, amyloid beta aggregates (Abeta40) (Homo sapiens, UniProt P05067); assay: In vitro binding assay (fluorescence labeling ability) to amyloid beta aggregates; settings: compound 10 μM, PBS, 30 min incubation
T2 construct: the synthesized Abeta40 (Amyloid Beta 40) peptide was dissolved in PBS; host or cells: synthetic peptide
T2 sequence (P05067 672-711 limits assumed): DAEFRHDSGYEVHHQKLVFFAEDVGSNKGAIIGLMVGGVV
Description: as §1

[4] = Measurement of absorbance and fluorescence of synthesized compound in ethanol; type: physicochemical; settings: 10 μM in ethanol; for λem: Maximum emission wavelength / λex: Maximum excitation wavelength: average of three measurements; for Stokes shift: difference between excitation and emission
Description: In order to investigate the optical properties of the newly synthesized compound in the present invention, the absorbance was measured using a V-730 UV-visible spectrophotometer manufactured by JASCO, and fluorescence was measured using a FlexStation 3 multi-mode microplate reader manufactured by Molecular Devices. Absorbance and fluorescence were measured three times at a concentration of 10 μM in ethanol, and the average thereof is shown in Table 1 below. At this time, T807 (AV-1451) as a Tau positron-emission-tomography (PET) tracer and Thioflavin S, which are commercially available to detect tau production in vivo, were used as a control group.

Compound	FIBSA: fold increase = fluorescence intensity of probe bound to BSA / probe (free) [1]	SIaβ: selectivity index = fluorescence intensity of probe bound to Tau aggregate / bound to Aβ aggregate [2]	SItaumono: selectivity index, tau aggregate versus tau monomer [2]	FItau: fold increase = fluorescence intensity of probe bound to tau aggregate / probe (free) [2]	FIAβ: fold increase = fluorescence intensity of probe bound to Aβ aggregate / probe (free) [3]	λem: Maximum emission wavelength [4] [nm]	λex: Maximum excitation wavelength [4] [nm]	Stokes shift [4] [nm]	selectivity for tau aggregates over amyloid aggregates [2] [times]	reactivity to BSA ([1]; in words)
COc1ccc2nc(/C=C/C=C/c3cccc(Cl)c3)ccc2c1 [Compound 15f, 6-methoxy-2-((1E,3E)-4-(3-chlorophenyl)buta-1,3-dien-1-yl)quinolone]	1.75	1.2	4.4	3.91	3.27	415	360	55		
COc1ccc2nc(/C=C/C=C/c3cccc([N+](=O)[O-])c3)ccc2c1 [Compound 15g, 6-methoxy-2-((1E,3E)-4-(3-nitrophenyl)buta-1,3-dien-1-yl)quinolone]	1.33	5.8	3.7	3.42	0.58	452	361	91	5.8	
COc1ccc2nc(/C=C/C=C/c3ccc(F)cc3F)ccc2c1 [Compound 15h, 6-methoxy-2-((1E,3E)-4-(2.4-difluorophenyl)buta-1,3-dien-1-yl)quinolone]	0.70	1.5	2.8	2.35	1.56	415	360	55		
CNc1ccc(/C=C/C=C/C(=O)c2ccc3cc(OC)ccc3n2)cc1 [Compound 16b, (2E,4E)-1-(6-methoxyquinolin-2-yl)-5-(4-(methylamino)phenyl)penta-2,4-dien-1-one]	56.71	1.0	2.1	9.22	9.45	714	475	239		
COc1ccc2nc(C(=O)/C=C/C=C/c3ccc(N(C)C)cc3)ccc2c1 [Compound 16c, (2E,4E)-5-(4-(dimethylamino)phenyl)-1-(6-methoxyquinolin-2-yl)penta-2,4-dien-1-one]	1.29	1.2	1.7	1.71	1.43	678	450	228		
COc1ccc2nc(C(=O)/C=C/C=C/c3ccc(N(C)C)nc3)ccc2c1 [Compound 16d, (2E,4E)-5-(6-(dimethylamino)pyridin-3-yl)-1-(6-methoxyquinolin-2-yl)penta-2,4-dien-1-one]	1.26	3.5	3.9	3.82	1.10	637	425	212	3.5	
COc1ccc2nc(C(=O)/C=C/C=C/c3ccc(N(C)CCO)cc3)ccc2c1 [Compound 16e]	1.59	2.5	3.0	3.90	1.55	658	436	222		
Thioflavin S [reference compound]	7.133	0.8	4.3	15.32	19.95	451	347	104		high reactivity
